Experimental data from publication PMC6349869, “The palladacycle complex AJ-5 induces apoptotic cell death while reducing autophagic flux in rhabdomyosarcoma cells” (Cell Death Discovery, 2019).

Legend:
Type in all cases: cell-based, human
aRMS and eRMS cells = assay: MTT cell viability assay, RMS cell lines (summary statements); conditions: alveolar and embryonal RMS cells
Experimental: (§1) RH30 human aRMS cells (kindly provided by Associate Professor Judith Davie, Southern Illinois University), AX-OH-1 human aRMS and FL-OH-1 human eRMS cells (kindly provided by Professor Stefan Bath, University of Cape Town) were cultured in Roswell Park Memorial Institute Medium (RPMI)-1640 (Sigma Aldrich, Missouri, USA). […] Cell morphology was monitored using an Olympus CKX41 inverted microscope (MSAC Ltd, UK) and imaged with an EVOS™ XL AMEX1000 Core Imaging System (Thermo Fisher Scientific, Massachusetts, USA).
(§2) Cells were seeded in 96-well plates and treated the next day with a range of AJ-5 concentrations (0.1–1.0 μM) or vehicle ([…]) for 48 h. Cell viability was measured using the 3-(4,5-dimethylthiazol-2-yl)-2,5-diphenyl-trazolium bromide (MTT) assay (11465007001; Sigma Aldrich) according to the manufacturer’s instructions. Mean cell viability was calculated as a percentage of the mean vehicle control. At least three independent experiments in quadruplicate were performed from which the half maximal inhibitory concentration (IC50) was determined using GraphPad Prism version 6.0 (GraphPad Software, California, USA). The selectivity index (SI) was determined by dividing the IC50 of a normal cell line by the IC50 of a cancer cell line.

HT1080 cells = assay: MTT cell viability assay, HT1080 fibrosarcoma; conditions: 48 h
FL-OH-1 cells = assay: MTT cell viability assay, FL-OH-1; conditions: FL-OH-1 (eRMS), 48 h
Experimental: as §1, §2

RH30 cells = assay: MTT cell viability assay, RH30; conditions: RH30 (aRMS), 48 h
Experimental: as §1, §2

RD cells = assay: Autophagic flux by western blotting (p62; LC3II with bafilomycin A1), RD
Experimental: AJ-5, synthesized as previously described, was dissolved in dimethyl sulfoxide (DMSO) (D8418; Sigma Aldrich) to give a 5 mM AJ-5 stock which was stored at room temperature (RT) and used within 5 days. AJ-5 was diluted in cell culture medium to achieve the desired final concentration and a vehicle control (DMSO) of the same concentration was prepared simultaneously. Cells were treated at a confluency of 60%. For western blot experiments to determine autophagy flux, cells were treated with 200 nM bafilomycin A1 (B1793; Sigma Aldrich) for 2 h post AJ-5 treatment. Doxorubicin (z/26/0167; Teva Pharmaceutical Industries Ltd, Israel) was used as a positive control in Caspase-Glo experiments at a concentration of 0.5 µM.
Cells were lysed at 4 °C in whole-cell lysis buffer (0.125 M Tris-HCl pH 6.8, 4% SDS, 0.2% glycerol, 0.1% β-mercaptoethanol and a pinch of bromophenol blue) and boiled for 10 min. Proteins were resolved by SDS-PAGE (6–15% gels) and transferred to Hybond ECL membranes (Amersham, UK). […] Densitometry readings were obtained using ImageJ v1.50i[58] and protein expression levels were represented as a ratio of protein of interest/p38 loading control normalized to the vehicletreated control sample where appropriate. […]

[1] = test system: LC3II in RH30 and RD cells; assay: LC3II western blotting; conditions: 0.1 µM or IC50, 24 and 48 h
Experimental: (§3) Cells were lysed at 4 °C in whole-cell lysis buffer (0.125 M Tris-HCl pH 6.8, 4% SDS, 0.2% glycerol, 0.1% β-mercaptoethanol and a pinch of bromophenol blue) and boiled for 10 min. Proteins were resolved by SDS-PAGE (6–15% gels) and transferred to Hybond ECL membranes (Amersham, UK). The membranes were incubated with primary antibodies: rabbit polyclonal antibodies to phospho-histone H2A.X (Ser139) (#2577), phospho-chk2 (Thr68) (#221), phospho-p38 MAPK (Thr180/Tyr182) (#9211), cleaved caspase-3 (Asp175) (#9661), PARP (#9542), caspase-9 (#9502), LC3B (#2775), p38 MAPK (#9212), rabbit monoclonal antibody to cleaved caspase-7 (Asp198) (D6H1) (#8438), mouse monoclonal antibodies to phospho-ATM (Ser1981) (D6H9) (#5883), Cyclin B1 (V152) (#4135), Caspase-8 (1C12) (#9746), SQSTM1/p62 (D5L7G) (#88588) from Cell Signaling Technology (Massachusetts, USA); mouse monoclonal antibody to p53 (DO-1) (sc-126), rabbit polyclonal antibodies to p21 (C-19) (sc-397), cyclin A (H-432) (sc-751), cyclin B1 (H-433)(sc-752), PARP-1 (H-250) (sc-7150) from Santa Cruz Biotechnology (Texas, USA); rabbit polyclonal antibody to p38 MAP kinase (M0800) from Sigma Aldrich. […] Densitometry readings were obtained using ImageJ v1.50i[58] and protein expression levels were represented as a ratio of protein of interest/p38 loading control normalized to the vehicletreated control sample where appropriate. […]

RH30 and RD cells = assay: Cell cycle analysis (FACS, PI) and cyclin western blots
Experimental: as §3

SW982 cells = assay: MTT cell viability assay, SW982 synovial sarcoma; conditions: 48 h
Experimental: as §1, §2

In the case of `CC(C)c1cccc(C(C)C)c1[N+]1=Cc2cccc[c]2[Pd-2]1([Cl])[P+](CC[P+](c1ccccc1)(c1ccccc1)[Pd-2]1([Cl])[c]2ccccc2C=[N+]1c1c(C(C)C)cccc1C(C)C)(c1ccccc1)c1ccccc1` (stereo not shown) [AJ-5], the IC50 (aRMS and eRMS cells) is reported as ≤ 200 nM, the IC50 (HT1080 cells) is reported as < 300 nM and the IC50 (FL-OH-1 cells) is reported as ≤ 200 nM. The IC50 (RH30 cells) was ≤ 200 nM, the “Autophagic flux judged by p62 levels” value (RD cells; 0.1 µM or IC50, 24 and 48 h) was “increases autophagic flux” and the “LC3II in the presence of bafilomycin A1, compared with vehicle” value (RD cells; IC50 24 h then 200 nM bafilomycin A1 2 h) was “negligible change in LC3II”. For the same molecule, the LC3II protein level [1] was “induced in both RMS cell lines in a time- and dose-dependent manner”, the Cell cycle progression (RH30 and RD cells; IC50, 24 and 48 h, FACS) was “induces a G1 cell cycle arrest” and the “Levels of cyclin A and cyclin B” value (RH30 and RD cells; western blotting) was “decrease”. The IC50 (SW982 cells) was < 300 nM.
